Results taken from US10206937B2, “Boronic acid derivatives and therapeutic uses thereof” (Qpex Biopharma, Inc., priority 2014, dated 2019).
Where two headings read alike, the source gives them in different places.

What was measured:
[1] = target: purified class A, C and D enzymes (Escherichia coli, UniProt Q9L5C7); assay type: biochemical
[2] = target: T1, purified class A, C and D enzymes (UniProt Q6XEC0); assay type: biochemical; conditions: read-out: Ki (OXA-48, NCF); purified OXA-48; nitrocefin reporter substrate
T1 construct: rows headed: Ki (OXA-48, NCF); other: purified OXA-48; nitrocefin reporter substrate

[3] = target: T2, purified class A, C and D enzymes (UniProt Q48434); assay type: biochemical; conditions: read-out: Ki (CMY-2, NCF); purified CMY-2; nitrocefin reporter substrate
T2 construct: rows headed: Ki (CMY-2, NCF); other: purified CMY-2; nitrocefin reporter substrate

[4] = target: T3, purified class A, C and D enzymes (UniProt Q9F663); assay type: biochemical; conditions: read-out: Ki (KPC-2, NCF); purified KPC-2; nitrocefin reporter substrate
T3 construct: rows headed: Ki (KPC-2, NCF); other: purified KPC-2; nitrocefin reporter substrate

NDM-1 [5] = target: T4, NDM-1 (Klebsiella pneumoniae, UniProt C7C422); assay: Inhibition of purified class B carbapenemase NDM-1 (Ki, imipenem substrate); assay type: biochemical; conditions: NDM-1, substrate imipenem; read-out: Ki NDM-1, Imipenem
NDM-1 [6] = target: T4, NDM-1; assay: biochemical
OXA-48 = OXA-48 (Klebsiella pneumoniae, UniProt Q6XEC0); assay: Inhibition of purified class D carbapenemase OXA-48 (Ki, carbapenem substrates); assay type: biochemical
VIM-1 = target: T5, VIM-1 (Pseudomonas aeruginosa, UniProt A0A0F7KYQ8); assay: biochemical; conditions: cleavage of nitrocefin (200 uM) by VIM-1 supernatant
T5 construct: made in house; host or cells: ECM6711 strain carrying pUCP24-VIM-1 plasmid; culture supernatant used unpurified

[7] = target: T6, purified class A, C and D enzymes (UniProt P0AD64, L31Q/G234S/E235K, species not given); assay type: biochemical; conditions: read-out: Ki (SHV-12, NCF); purified SHV-12; nitrocefin reporter substrate
T6 construct: Ki (SHV-12, NCF); other: purified SHV-12; nitrocefin reporter substrate
T6 sequence (P0AD64 1-286 L31Q/G234S/E235K): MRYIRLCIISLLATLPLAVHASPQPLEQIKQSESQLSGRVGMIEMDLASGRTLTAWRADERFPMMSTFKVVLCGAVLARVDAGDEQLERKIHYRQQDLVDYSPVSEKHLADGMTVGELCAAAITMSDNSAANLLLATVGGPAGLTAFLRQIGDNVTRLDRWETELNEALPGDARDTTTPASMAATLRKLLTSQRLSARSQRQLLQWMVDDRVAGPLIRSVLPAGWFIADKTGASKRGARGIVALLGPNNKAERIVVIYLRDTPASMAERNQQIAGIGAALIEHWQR

KPC-2 = KPC-2 (Klebsiella pneumoniae, UniProt Q9F663); assay: Inhibition of purified class A carbapenemase KPC-2 (Ki, carbapenem substrates); assay type: biochemical
[8] = target: purified class A, C and D enzymes (Enterobacter cloacae, UniProt P05364); assay type: biochemical; conditions: purified P99/AmpC of ECL; nitrocefin reporter substrate
[9] = system: strains of Enterobacteriaceae producing various carbapenemases (class A, D and B; 169 strains); assay: Meropenem or tebipenem potentiation by Compounds 97 or 62 (MIC); assay type: cell-based; conditions: Compound 62 at a fixed concentration of 8 μg/ml
Experimental: The largest panel of clinical isolates expressing class A, D and B carbapenemases alone or in combination with other beta-lactamases (169 strains) was used to evaluate carbapenem potentiation activity of Compounds 97 and 62. MIC for meropenem and tebipenem of these strains were determined either alone or in the presence of Compounds 97 or 62, respectively, at a fixed concentration of 8 μg/ml in the growth media.

[10] = Serum stability of prodrugs: hydrolysis by human serum; assay type: in vitro ADME; conditions: prodrug; for Measured Initial Conc. in Serum: 37 degrees, sampled immediately
Experimental: (§1) Prodrug strategy is one of the ways to achieve or increase oral bioavailability for therapeutic drugs. Compound 62 was used as a template for various ester prodrugs. After a prodrug molecule is absorbed into systemic circulation, it should be hydrolyzed in the blood in order to release the active form. Hydrolysis of several prodrugs by rat and human serum were evaluated.
(§2) For all stability experiments the test compounds were treated with rat or human serum in Eppendorf tubes. Typically, 980 μl of serum was prewarmed at 37 degrees for 2 minutes and then 20 μl of a compound (at 1 mg/ml, 50×) was added to it to get a final concentration of 20 μg/ml and immediately mixed. Duplicate samples were tested. […] After vortexing for 30 seconds, the tube was centrifuged in a microcentrifuge for 10 minutes at 15K rpm. Next, 100 μl of the supernatant was combined with 600 μl of water and injected on LC-MS using 0.1% formic acid in water for mobile phase A and 0.1% formic acid in methanol for mobile phase B on an ACE 5 C18 2.1×100 mm column with a 10 μL it injection. The flow rate and gradient were adjusted as needed to give the desired resolution and run time. The pH of the mobile phase was adjusted if needed to improve the chromatography.
(§3) The time course of both the disappearance of a prodrug and the appearance of the active form of that prodrug is presented in Table 13 and Table 14. The active metabolites for all of the listed prodrugs are corresponding parent drugs

[11] = Serum stability of prodrugs: hydrolysis by rat serum; assay type: in vitro ADME; conditions: for Measured Initial Conc. in Serum / Conc. at t = 1 hr / Conc. at t = 3 hr: rat serum, prodrug; for Measured Initial Conc. in Serum: 37 degrees, sampled immediately
Experimental: as §1, §2, §3

[12] = cleavage of biapenem (100 uM) by NDM-1, read-out: Ki, Biapenem
[13] = cleavage of imipenem (100 uM) by NDM-1, read-out: Ki, Imipenem
[14] = cleavage of biapenem by OXA-48, read-out: Ki, Biapenem
[15] = cleavage of doripenem by OXA-48, read-out: Ki, Doripenem
[16] = cleavage of imipenem by OXA-48, read-out: Ki, Imipenem
[17] = cleavage of meropenem by OXA-48, read-out: Ki, Meropenem
[18] = purified OXA-48, substrate biapenem, read-out: Ki OXA-48, Biapenem

T4 sequence (C7C422 29-270, looked up, species assumed): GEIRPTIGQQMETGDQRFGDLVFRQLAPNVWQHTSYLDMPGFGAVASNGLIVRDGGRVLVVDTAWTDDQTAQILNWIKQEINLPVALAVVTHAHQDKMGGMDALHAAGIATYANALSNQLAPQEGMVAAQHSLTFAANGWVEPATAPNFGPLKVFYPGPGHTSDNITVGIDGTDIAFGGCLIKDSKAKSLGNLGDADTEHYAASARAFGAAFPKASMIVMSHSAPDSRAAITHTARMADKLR
Chain of KPC-2 (Q9F663 25-293 limits assumed): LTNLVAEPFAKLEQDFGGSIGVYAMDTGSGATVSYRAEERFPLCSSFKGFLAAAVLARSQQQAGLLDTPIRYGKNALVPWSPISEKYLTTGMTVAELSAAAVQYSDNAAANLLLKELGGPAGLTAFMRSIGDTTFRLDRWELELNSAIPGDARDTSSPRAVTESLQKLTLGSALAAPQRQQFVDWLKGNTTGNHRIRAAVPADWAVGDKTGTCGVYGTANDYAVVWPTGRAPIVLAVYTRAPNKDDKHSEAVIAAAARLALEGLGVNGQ
Chain of OXA-48 (Q6XEC0 23-265, looked up): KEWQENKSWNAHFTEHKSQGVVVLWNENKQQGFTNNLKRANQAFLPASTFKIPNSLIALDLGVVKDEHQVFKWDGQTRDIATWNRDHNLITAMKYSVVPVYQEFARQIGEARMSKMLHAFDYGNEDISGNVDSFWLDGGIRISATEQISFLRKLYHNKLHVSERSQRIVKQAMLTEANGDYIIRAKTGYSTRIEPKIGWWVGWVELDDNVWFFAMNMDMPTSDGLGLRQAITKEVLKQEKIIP
Chain of purified class A, C and D enzymes (Escherichia coli, UniProt Q9L5C7) (Q9L5C7 entry or part of it): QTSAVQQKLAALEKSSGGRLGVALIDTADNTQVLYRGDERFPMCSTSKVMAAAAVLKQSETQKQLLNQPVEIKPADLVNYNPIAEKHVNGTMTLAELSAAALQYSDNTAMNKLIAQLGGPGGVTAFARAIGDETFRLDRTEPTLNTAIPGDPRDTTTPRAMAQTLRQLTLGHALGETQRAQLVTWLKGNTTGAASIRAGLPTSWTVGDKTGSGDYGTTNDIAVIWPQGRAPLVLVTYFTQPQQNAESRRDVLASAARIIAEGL
Chain of purified class A, C and D enzymes (Enterobacter cloacae, UniProt P05364) (P05364 21-381): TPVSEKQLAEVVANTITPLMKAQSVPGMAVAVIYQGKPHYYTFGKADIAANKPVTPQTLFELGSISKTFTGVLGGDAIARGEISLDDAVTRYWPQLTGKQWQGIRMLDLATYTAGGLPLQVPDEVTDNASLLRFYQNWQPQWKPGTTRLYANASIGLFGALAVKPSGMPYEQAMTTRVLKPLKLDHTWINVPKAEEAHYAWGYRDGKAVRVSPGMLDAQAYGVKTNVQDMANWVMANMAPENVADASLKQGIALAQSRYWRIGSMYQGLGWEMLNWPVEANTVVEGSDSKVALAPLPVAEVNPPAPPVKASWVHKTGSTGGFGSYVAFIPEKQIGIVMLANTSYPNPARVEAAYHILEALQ

Row | Measured Initial Conc. in Serum [10] [µM] | Conc. at t = 1 hr [10] [µM] | Conc. at t = 3 hr [10] [µM] | Measured Initial Conc. in Serum [11] [µM] | Conc. at t = 1 hr [11] [µM] | Conc. at t = 3 hr [11] [µM] | Structure (SMILES) | Ki [2] [nM] | Ki [3] [nM] | Ki [4] [nM] | Ki (NDM-1 [5]) [nM] | Ki (NDM-1 [6]; [13]) [nM] | IC50 (VIM-1) [nM] | Ki [7] [nM] | further results
1 |  |  |  |  |  |  | O=C(O)[C@H]1/C(=C/CO)O[C@@H]2CC(=O)N21 [Clavulanic acid] | > 1000 | > 1000 | > 1000 |  |  |  |  | Ki (CTX-M-14, NCF) [1]: X (key: X: Less than 0.1 μM; Y: 0.1 μM to 1 μM; Z: Greater than 1 μM)
2 |  |  |  |  |  |  | Nc1nnc(S[C@H]2Cc3cccc(C(=O)O)c3OB2O)s1 [Compound 4, (R)-3-(5-amino-1,3,4-thiadiazol-2-ylthio)-2-hydroxy-3,4-dihydro-2H-benzo[e][1,2]oxaborinine-8-carboxylic acid] | < 100 | < 100 |  | < 10 | < 10 | < 1000 | < 100 | Ki (NDM-1 [6]; [12]): < 10 nM; Ki (NDM-1 [6]; cleavage of tebipenem (100 uM) by NDM-1, read-out: Ki, Tebipenem): < 10 nM; Ki (OXA-48; [14]): < 10 nM; Ki (OXA-48; [15]): 10 to 100 nM; Ki (OXA-48; [16]): < 10 nM; Ki (OXA-48; [17]): > 100 nM; Ki (OXA-48; cleavage of tebipenem by OXA-48, read-out: Ki, Tebipenem): 10 to 100 nM; Ki (OXA-48; [18]): < 10 nM
3 |  |  |  |  |  |  | CC(=O)Nc1nnc(S[C@H]2Cc3cccc(C(=O)O)c3OB2O)s1 [Compound 7, (R)-3-(5-acetamido-1,3,4-thiadiazol-2-ylthio)-2-hydroxy-3,4-dihydro-2H-benzo[e][1,2]oxaborinine-8-carboxylic acid] | < 100 | < 100 |  | 10 to 100 | 10 to 100 | < 1000 | < 100 | Ki (OXA-48; [18]): < 10 nM
4 |  |  |  |  |  |  | O=C(O)c1cccc2c1OB(O)[C@@H](Sc1nccs1)C2 [Compound 11, (R)-2-hydroxy-3-(thiazol-2-ylthio)-3,4-dihydro-2H-benzo[e][1,2]oxaborinine-8-carboxylic acid] | < 100 | < 100 |  | > 100 | > 100 | ≥ 1000 | < 100 | 
5 |  |  |  |  |  |  | NC(=O)CC1Cc2cccc(C(=O)O)c2OB1O (centres unmarked) [Compound 22, 3-(2-amino-2-oxoethyl)-2-hydroxy-3,4-dihydro-2H-benzo[e][1,2]oxaborinine-8-carboxylic acid] | < 100 | < 100 | < 100 |  |  |  | < 100 | 
6 |  |  |  |  |  |  | COc1ccc2c(c1C(=O)O)OB(O)[C@@H](Sc1nncs1)C2 [Compound 62, (3R)-2-hydroxy-7-methoxy-3-(1,3,4-thiadiazol-2-ylsulfanyl)-3,4-dihydro-1,2-benzoxaborinine-8-carboxylic acid] | < 100 |  | < 100 | > 100 | > 100 | < 1000 | < 100 | Ki (NDM-1 [6]; [12]): 10 to 100 nM; Ki (KPC-2; cleavage of biapenem by KPC-2, read-out: Ki, Biapenem): < 10 nM; Ki (KPC-2; cleavage of doripenem by KPC-2, read-out: Ki, Doripenem): < 10 nM; Ki (KPC-2; cleavage of imipenem by KPC-2, read-out: Ki, Imipenem): 10 to 100 nM; Ki (KPC-2; cleavage of meropenem by KPC-2, read-out: Ki, Meropenem): < 10 nM; Ki (KPC-2; purified KPC-2, substrate biapenem, numeric value, read-out: Ki KPC-2, Biapenem): 3.9 nM; Ki (OXA-48; [14]): < 10 nM; Ki (OXA-48; [15]): < 10 nM; Ki (OXA-48; [16]): < 10 nM; Ki (OXA-48; [17]): < 10 nM; Ki (OXA-48; purified OXA-48, substrate biapenem, numeric value, read-out: Ki OXA-48, Biapenem): 5.6 nM; Ki (CTX-M-14, NCF) ([1]; purified CTX-M-14, nitrocefin reporter substrate): X (Less than 0.1 μM); Ki (P99/AmpC of ECL, NCF) [8]: Y (0.1 μM to 1 μM); tebipenem MIC [9]: significantly reduced
7 | 51.4 | 38.6 | 24.8 | 31.3 | 40.7 | 24.3 | COc1ccc2c(c1C(=O)OCOC(=O)C(C)C)OB(O)[C@@H](Sc1nncs1)C2 [Compound 121, 2-methylpropanoyloxymethyl (3R)-2-hydroxy-7-methoxy-3-(1,3,4-thiadiazol-2-ylsulfanyl)-3,4-dihydro-1,2-benzoxaborinine-8-carboxylate] |  |  |  |  |  |  |  | 
8 | 44.3 | 34.1 | 47.1 | 37.7 | 26.6 | 39.0 | COc1ccc2c(c1C(=O)OCOC(=O)OC(C)C)OB(O)[C@@H](Sc1nncs1)C2 [Compound 122, isopropoxycarbonyloxymethyl (3R)-2-hydroxy-7-methoxy-3-(1,3,4-thiadiazol-2-ylsulfanyl)-3,4-dihydro-1,2-benzoxaborinine-8-carboxylate] |  |  |  |  |  |  |  | 
9 | 48.3 | 38.3 | 45.9 | 44.9 | 36.8 | 41.2 | CCOC(=O)OCOC(=O)c1c(OC)ccc2c1OB(O)[C@@H](Sc1nncs1)C2 [Compound 124, ethoxycarbonyloxymethyl (3R)-2-hydroxy-7-methoxy-3-(1,3,4-thiadiazol-2-ylsulfanyl)-3,4-dihydro-1,2-benzoxaborinine-8-carboxylate] |  |  |  |  |  |  |  | 
10 | 41.8 | 27.4 | 41.4 | 37.6 | 28.5 | 48.2 | COc1ccc2c(c1C(=O)OCOC(=O)C(C)(C)C)OB(O)[C@@H](Sc1nncs1)C2 [Compound 125, 2,2-dimethylpropanoyloxymethyl (3R)-2-hydroxy-7-methoxy-3-(1,3,4-thiadiazol-2-ylsulfanyl)-3,4-dihydro-1,2-benzoxaborinine-8-carboxylate] |  |  |  |  |  |  |  | 
11 |  |  |  |  |  |  | C[C@]1(Cn2ccnn2)[C@H](C(=O)O)N2C(=O)C[C@H]2S1(=O)=O [Tazobactam] | 100 to 1000 | 100 to 1000 | > 1000 |  |  |  |  | 

Row | Structure (SMILES) | Measured Initial Conc. in Serum [10] [µM] | Conc. at t = 1 hr [10] [µM] | Conc. at t = 3 hr [10] [µM] | Measured Initial Conc. in Serum [11] [µM] | Conc. at t = 1 hr [11] [µM] | Conc. at t = 3 hr [11] [µM] | Ki [2] [nM] | Ki [3] [nM] | Ki [4] [nM] | Ki (NDM-1 [5]) [nM] | Ki (NDM-1 [6]; [13]) [nM] | IC50 (VIM-1) [nM] | Ki [7] [nM] | further results
12 | COc1ccc2c(c1C(=O)OCOC(C)=O)OB(O)[C@@H](Sc1nncs1)C2 [Compound 123, acetoxymethyl (3R)-2-hydroxy-7-methoxy-3-(1,3,4-thiadiazol-2-ylsulfanyl)-3,4-dihydro-1,2-benzoxaborinine-8-carboxylate] | 51.7 | 43.4 | 30.7 | 51.5 | 26.1 | 8.6 |  |  |  |  |  |  |  | conversion of prodrug to active metabolite ([11]; serum species not given, 4 hour experiment): completely converted to active metabolite
